Data taken from patent publication US20250188041A1, “NEW COMPOUNDS AND TREATMENT OF RENAL CELL CARCINOMA” (Trustlife Global Inc., priority 2022, published 2025).
“Also recorded” adds a separate entry of the source.

What was measured:
Format in all cases: cell-based, Human
BUB1B = assay: Western blot, BUB1B expression in Caki-1 treated with TG-101209 alternatives; details: Caki-1, 5 μM of target drug, 1 day (FIG. 41; method says 2 days)
Protocol: (§1) Cell culture 2: Caki-1 was purchased from CLS Cell Lines Service (Germany). The cells were maintained in McCoy's SA (modified) medium (16600082, Thermo Fisher Scientific, USA) and supplemented with 10% fetal bovine serum (FBS, F7524, Sigma-Aldrich), 1% Penicillin/Streptomycin (P4333, Sigma-Aldrich).
The target drugs developed as alternatives to TG-101209, were dissolved in 0.1% DMSO (41639, Sigma-Aldrich). Caki-1 cells from cell culture 2 were seeded in a 6-well plate at 3×10^5 cells per well. […]
The cells were washed with PBS solution and then lysed with CelLytic M (C2978, Sigma-Aldrich) lysis buffer containing protease inhibitors (11836170001, Roche). The cell lysates were centrifuged at 12 000 rpm for 10 min and supernatants were collected. Protein Assay Dye Reagent (5000006, Bio-Rad) was used for the determination of protein concentration. The absorbance of the proteins was measured spectrophotometrically at 595 nm by a microplate reader (Hidex Sense Beta Plus). Protein electrophoresis was performed using Mini-PROTEAN® TGX™ Precast Gels (4561086, Bio-Rad) and then the separated proteins were transferred to a Trans-Blot Turbo Mini 0.2 um PVDF Transfer Packs membrane (1704158, Bio-Rad) by using Trans-Blot® Turbo™ Transfer System (Bio-Rad). The membrane was blocked with 5% skim milk for 30 min at 4° C. with gentle rocking. After blocking, the membrane was treated with primary antibodies: Anti-BUB1B (HPA008419, Human Protein Atlas, Sweden) and Anti-Beta actin (ab8227, Abcam) as a loading control overnight at 4° C. on a rocking platform. After the treatment of primary antibodies, the membrane was washed three times with TBS-T buffer (A09-7500-100, Medicago). Then, Goat anti-Rabbit IgG-HRP (ab205718, Abcam) was treated as the secondary antibody for 30 min at 4° C. with gentle rocking.

Caki-1 cells [1] = assay: MTT cell viability assay of Caki-1 treated with TG-101209 and its alternatives; details: for IC50: Homo sapiens, FIG. 43, assay not named, presumably Caki-1 cell viability; for cell viability (MTT assay) / Ranking, Cell viability (%): 1 day; for Ranking, Cell viability (%): top five target drugs, MTT assay, 10 μM, rank 1 = greatest reduction
Protocol: as §1
The cytotoxic effects of the TG-101209 and its alternatives on the Caki-1 cells were tested by MTT (Thiazolyl Blue Tetrazolium Bromide) method. 1.5×10^4 cells were seeded per well in a 96-well plate in 100 μL growth media. […] After the incubation period, 5 mg/ml MTT (M2128, Sigma-Aldrich) solution in PBS (10 μL) was added to each well. After 1 hour, the MTT solution and all media were removed from the wells. 100 μl of DMSO was added and mixed to dissolve the formazan crystals. Cell viability was analysed by measuring the absorbance of the dissolved formazan at a wavelength of 570 nm with a microplate reader (Hidex Sense Beta Plus).

Caki-1 cells [2] = assay: LDH cytotoxicity assay of Caki-1; details: 1 day; for cytotoxicity (LDH assay): Caki-1, 10 μM; for Ranking, Cytotoxicity (%): top five target drugs, LDH assay, 10 μM, rank 1 = highest cytotoxicity
Protocol: as §1
Lactate dehydrogenase (LDH) assay was performed with LDH Assay Kit (ab65393). 1.5×10^4 cells per well (from cell culture 2) were seeded in a 96-well plate and drugs were treated at 10 μM for 1 day with 200 μl media. 20 μl of media was analysed with LDH Assay Kit as per manufacturer's instruction.

SMILES | expression levels of BUB1B (BUB1B) | IC50 (Caki-1 cells [1]) | cell viability (MTT assay) (Caki-1 cells [1]; Caki-1, 5 μM) | cell viability (MTT assay) (Caki-1 cells [1]; Caki-1, 10 μM) | cell viability (MTT assay) (Caki-1 cells [1]; Caki-1, 10 μM, listed as MS) | Ranking, Cell viability (%) (Caki-1 cells [1]) | cytotoxicity (LDH assay) (Caki-1 cells [2]) | Ranking, Cytotoxicity (%) (Caki-1 cells [2])
Cc1cnc(Nc2ccc(N3CCN(C)CC3)cc2)nc1Nc1cccc(S(=O)(=O)Nc2ccccc2)c1 [M3, 3-((5-methyl-2-((4-(4-methylpiperazin-1-yl)phenyl)amino)pyrimidin-4-yl)amino)-N-phenylbenzenesulfonamide] | significantly lower the expression levels of BUB1B | ~3000 nM |  |  |  |  |  | 
Cc1cnc(Nc2ccc(N3CCN(C)CC3)cc2)nc1Nc1cccc(S(=O)(=O)NC2CCC2)c1 [M5, N-cyclobutyl-3-((5-methyl-2-((4-(4-methylpiperazin-1-yl)phenyl)amino)pyrimidin-4-yl)amino)benzenesulfonamide] | significantly lower the expression levels of BUB1B | ~3000 nM | greatest | greatest reduction of cell viability; also recorded: greatest reduction in cell viability | most profound effect on the cell viability | 1 | exhibited cytotoxicity; also recorded: highest cytotoxicity; also recorded: greatest cytotoxicity | 2
Cc1cnc(Nc2ccc(N3CCN(C)CC3)cc2)nc1Nc1cccc(S(=O)(=O)N2CCOCC2)c1 [M7, 5-methyl-N2-(4-(4-methylpiperazin-1-yl)phenyl)-N4-(3-(morpholinosulfonyl)phenyl)pyrimidine-2,4-diamine] | significantly lower the expression levels of BUB1B | > 3000 nM |  |  |  |  |  | 
Cc1cn(-c2cc(Nc3ncc(C)c(Nc4cccc(S(=O)(=O)NC(C)(C)C)c4)n3)cc(C(F)(F)F)c2)cn1 [M64, N-(tert-butyl)-3-((5-methyl-2-((3-(4-methyl-1H-imidazol-1-yl)-5-(trifluoromethyl)phenyl)amino)pyrimidin-4-yl)amino)benzenesulfonamide] | significantly lower the expression levels of BUB1B | > 3000 nM |  |  |  |  |  | 
Cc1ccc(Nc2ncc(C)c(Nc3cccc(S(=O)(=O)NC(C)(C)C)c3)n2)cc1S(N)(=O)=O [M66, N-(tert-butyl)-3-((5-methyl-2-((4-methyl-3-sulfamoylphenyl)amino)pyrimidin-4-yl)amino)benzenesulfonamide] | significantly lower the expression levels of BUB1B |  | greatest | most profound effect on the cell viability |  | 3 | exhibited cytotoxicity | 4
COc1cc(Nc2ncc(C)c(Nc3cccc(S(=O)(=O)NC(C)(C)C)c3)n2)cc(OC)c1 [M79, N-(tert-butyl)-3-((2-((3,5-dimethoxyphenyl)amino)-5-methylpyrimidin-4-yl)amino)benzenesulfonamide] | significantly lower the expression levels of BUB1B | ~3000 nM |  |  |  |  |  | 
COc1cc(NC(=O)c2ccc(Nc3ncc(C)c(Nc4cccc(S(=O)(=O)NC(C)(C)C)c4)n3)cc2)cc(OC)c1 [M101A, 4-((4-((3-(N-(tert-butyl)sulfamoyl)phenyl)amino)-5-methylpyrimidin-2-yl)amino)-N-(3,5-dimethoxyphenyl)benzamide] |  |  | greatest | most profound effect on the cell viability |  | 4 | exhibited cytotoxicity | 5
Cc1cnc(Nc2ccc(C(=O)Nc3cccc(Br)c3)cc2)nc1Nc1cccc(S(=O)(=O)NC(C)(C)C)c1 [M101B, N-(3-bromophenyl)-4-((4-((3-(N-(tert-butyl)sulfamoyl)phenyl)amino)-5-methylpyrimidin-2-yl)amino)benzamide] |  |  | greatest |  |  |  | exhibited cytotoxicity | 3
Cc1cnc(Nc2ccc(C(=O)Nc3cccc(S(=O)(=O)NC(C)(C)C)c3)cc2)nc1Nc1cccc(S(=O)(=O)NC(C)(C)C)c1 [M101D, N-(3-(N-(tert-butyl)sulfamoyl)phenyl)-4-((4-((3-(N-(tert-butyl)sulfamoyl)phenyl)amino)-5-methylpyrimidin-2-yl)amino)benzamide] |  |  | greatest | most profound effect on the cell viability; also recorded: greatest reduction of cell viability; also recorded: greatest reduction in cell viability |  | 2 | exhibited cytotoxicity; also recorded: highest cytotoxicity; also recorded: greatest cytotoxicity | 1
Cc1cnc(Nc2ccc(C(=O)Nc3cccc(S(=O)(=O)N4CCOCC4)c3)cc2)nc1Nc1cccc(S(=O)(=O)NC(C)(C)C)c1 [M101F, 4-((4-((3-(N-(tert-butyl)sulfamoyl)phenyl)amino)-5-methylpyrimidin-2-yl)amino)-N-(3-(morpholinosulfonyl)phenyl)benzamide] |  |  | greatest |  |  |  | exhibited cytotoxicity | 
Cc1cnc(Nc2ccc(C(=O)Nc3ccc(OCCCN4CCOCC4)cc3)cc2)nc1Nc1cccc(S(=O)(=O)NC(C)(C)C)c1 [M101G, 4-((4-((3-(N-(tert-butyl)sulfamoyl)phenyl)amino)-5-methylpyrimidin-2-yl)amino)-N-(4-(3-morpholinopropoxy)phenyl)benzamide] |  |  | greatest |  |  |  |  | 
Cc1cnc(Nc2ccc(C(=O)Nc3ccc4ncccc4c3)cc2)nc1Nc1cccc(S(=O)(=O)NC(C)(C)C)c1 [M101H, 4-((4-((3-(N-(tert-butyl)sulfamoyl)phenyl)amino)-5-methylpyrimidin-2-yl)amino)-N-(quinolin-6-yl)benzamide] |  |  | greatest |  |  |  |  | 
Cc1cnc(Nc2ccc(OCCCN3CCOCC3)cc2)nc1Nc1cccc(S(=O)(=O)NC(C)(C)C)c1 [M103, N-(tert-butyl)-3-((5-methyl-2-((4-(3-morpholinopropoxy)phenyl)amino)pyrimidin-4-yl)amino)benzenesulfonamide] |  | ~3000 nM |  |  |  |  |  | 
